Columns and labels:
[1] = test system: viral protein glycosylation; conditions: cited from earlier work
HIV glycoproteins = conditions: cited from earlier work; for formation of syncytia: HIV
HSV = conditions: cited from earlier work
Herpes infections = conditions: in man; cited from earlier work
HSV1 and HSV2 = conditions: cited from earlier work
[2] = at high dosage; cited from earlier work
HSV1 strain 17i = assay: plaque-reduction assay, HSV1 strain 17i in MRC5 cells; assay type: cell-based, HSV1 strain 17i; human embryonic fibroblast cells (MRC5); conditions: Human alphaherpesvirus 1, 72 h, 3 days incubation, read-out: ED50 HSVI
Method: (§1) Antiviral activity of the compounds of formula (1) can assessed by the plaque-reduction assay as previously described by Tyms et al., J. Antimicrobial Chemotherapy, 8, 65-72 (1981). Briefly, human embryonic fibroblast cells (MRC5) were cultured in 24-well tissue culture trays in the presence of Eagles' minimum essential medium (MEM) supplemented with 10% fetal calf serum. When cell monolayers were semi-confluent, they were inoculated with 30-50 plaque-forming units of HSV2 strain HG52 or HSV1 strain 17[…]. General Virology, 55, 315-331 (1981). […] After 3 days incubation, cells were fixed in 10% formalin in saline and subsequently stained with 0.3% methylene blue. Dose-responselines were plotted from the mean number of plaques present versus the log of the concentration of the compound. The 50% effective dose (ED50) was computed after linear regression analysis.

HSV2 strain HG52 = assay: plaque-reduction assay, HSV2 strain HG52 in MRC5 cells; assay type: cell-based, HSV2 strain HG52; human embryonic fibroblast cells (MRC5); conditions: Human alphaherpesvirus 2, 72 h, 3 days incubation, read-out: ED50 HSVII
Method: as §1

## 2-deoxy-2-fluoroglucose
[1]
  inhibition of viral protein glycosylation: inhibit viral protein glycosylation by a different mechanism

## O=CC[C@@H](O)[C@H](O)[C@H](O)CO [2-deoxy-D-glucose]
HIV glycoproteins
  formation of syncytia: block the formation of syncytia
  expression of HIV glycoproteins: inhibit expression of HIV glycoproteins
HSV
  activity against HSV: active against HSV
Herpes infections
  efficacy in the treatment of Herpes infections: has shown efficacy in the treatment of Herpes infections in man

## O=CC[C@@H](O)[C@H](O)[C@H](O)CO [2-deoxyglucose]
[1]
  inhibition of viral protein glycosylation: inhibit viral protein glycosylation by a different mechanism

## Nc1nc2c(ncn2COCCO)c(=O)[nH]1 [Acyclovir]
HSV1 and HSV2
  antiviral effect: potent antiviral effect
[2]
  solubility: Poor solubility at high dosage

## CCCC(=O)O[C@H]1CN2CC[C@H](O)[C@@H]2[C@@H](O)[C@@H]1O [MDL 28,574, [1S-(1α,6β,7α,8β,8aβ)]-octahydro-1,6,7,8-indolizinetetrol 6-butanoate]
HSV1 strain 17i
  EC50: ≤ 75 µg/mL
HSV2 strain HG52
  EC50: ≤ 22 µg/mL

## Cc1ccc(C(=O)O[C@H]2CN3CC[C@H](O)[C@@H]3[C@@H](O)[C@@H]2O)cc1 [MDL 29,204]
HSV2 strain HG52
  EC50: ≤ 20 µg/mL

## CCC=CCC(=O)O[C@H]1CN2CC[C@H](O)[C@@H]2[C@@H](O)[C@@H]1O [MDL 29,513, [1S-(1α,6β,7α,8β,8aβ)]-octahydro-1,6,7,8-indolizinetetrol 6-(3-hexenoate)]
HSV1 strain 17i
  EC50: ≤ 5 µg/mL
HSV2 strain HG52
  EC50: ≤ 5 µg/mL

## CCCCCCCC(=O)O[C@H]1CN2CC[C@H](O)[C@@H]2[C@@H](O)[C@@H]1O [MDL 29,797, [1S-(1α,6β,7α,8β,8aβ)]-octahydro-1,6,7,8-indolizinetetrol 6-octanoate]
HSV1 strain 17i
  EC50: ≤ 10 µg/mL
HSV2 strain HG52
  EC50: ≤ 5 µg/mL

## O=C(O[C@H]1CN2CC[C@H](O)[C@@H]2[C@@H](O)[C@@H]1O)c1ccccc1 [MDL 43,305, [1S-(1α,6β,7α,8β,8aβ)]-octahydro-1,6,7,8-indolizinetetrol 6-benzoate]
HSV2 strain HG52
  EC50: ≤ 20 µg/mL

## CCC(O)[C@H](N)C(=O)O (stereo partly drawn) [β-hydroxy-norvaline]
HIV glycoproteins
  formation of syncytia: block the formation of syncytia
  expression of HIV glycoproteins: inhibit expression of HIV glycoproteins

From patent publication US5385911A, “Anti-herpes castanospermine esters” (priority 1990, dated 1995)
